This passage reports melting point results from patent US6541484B2 (dated 2003).

Each structure is given as a SMILES string. Counter-ions that a name gives are not always drawn.

The melting point is the temperature, or range, at which the solid turns liquid. For `Cn1ncnc1COc1nc2c(cnn2-c2ccccc2)cc1C(C)(C)C`, the melting point was 143 to 145 °C. In the case of `CCn1ncnc1COc1nc2c(cnn2-c2ccccc2)c2ccccc12` it was 147 to 148 °C; in that of `Cn1ncnc1COc1nc2c(cnn2-c2ccccc2)c2ccccc12`, 149 to 151 °C; in that of `Cn1ncnc1COc1cc(N)c2cnn(-c3ccccc3)c2n1`, 164 to 166 °C. In the case of `CCn1ncnc1COc1nc2c(cnn2-c2ccccc2)cc1C(C)(C)C` (as salt: hydrochloride) it was 150 to 152 °C.
